{"source": "PubChem BioAssay AID342", "about": "(DTP/NCI, 2004)", "test_system": "Swiss mice, Sarcoma 180 sc, mean tumor weight T/C", "assay": "NCI In Vivo Anticancer Drug Screen. Data for tumor model Sarcoma 180 (subcutaneous) in Swiss mice", "details": "endpoint: mean tumor weight, higher = larger tumour", "summary_of_the_method": "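Antitumor activity is assessed in mice with transplantable tumors. Treated (T) and vehicle control (C) groups are compared on survival or tumor size.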", "note": "Several values for one entry are separate records, joined by “and”; a condition that tells them apart may be missing. Identical values can stand only once."}
{"smiles": "S=P(N1CC1)(N1CC1)N1CC1", "values": [{"measurement": "T/C", "setting": "dose: 0.43 mg/kg/injection, schedule: Q01DX007 (ip), vehicle: carboxymethylcellulose (CMC)", "result": "91 % of control"}, {"measurement": "T/C", "setting": "dose: 0.87 mg/kg/injection, schedule: Q01DX007 (ip), vehicle: carboxymethylcellulose (CMC)", "result": "85 % of control"}, {"measurement": "T/C", "setting": "dose: 1.75 mg/kg/injection, schedule: Q01DX007 (ip), vehicle: carboxymethylcellulose (CMC)", "result": "104 % of control"}, {"measurement": "T/C", "setting": "dose: 3.5 mg/kg/injection, schedule: Q01DX007 (ip), vehicle: carboxymethylcellulose (CMC)", "result": "65 % of control"}, {"measurement": "T/C", "setting": "dose: 218.5 mg/kg/injection, schedule: Q#A X014 (ip), vehicle: carboxymethylcellulose (CMC)", "result": "108 % of control"}, {"measurement": "T/C", "setting": "dose: 437.5 mg/kg/injection, schedule: Q#A X014 (ip), vehicle: carboxymethylcellulose (CMC)", "result": "110 % of control"}, {"measurement": "T/C", "setting": "dose: 875.0 mg/kg/injection, schedule: Q#A X014 (ip), vehicle: carboxymethylcellulose (CMC)", "result": "46 % of control"}]}
{"smiles": "CC1=C2C(=CC(C)(C)[C@@H]2O)C(=O)[C@](C)(O)C12CC2", "values": [{"measurement": "T/C", "setting": "dose: 0.1 mg/kg/injection, schedule: Q01DX007 (ip), vehicle: saline", "result": "63 % of control"}, {"measurement": "T/C", "setting": "dose: 0.2 mg/kg/injection, schedule: Q01DX007 (ip), vehicle: saline", "result": "25 % of control"}, {"measurement": "T/C", "setting": "dose: 0.3 mg/kg/injection, schedule: Q01DX007 (ip), vehicle: saline", "result": "57 % of control"}, {"measurement": "T/C", "setting": "dose: 0.4 mg/kg/injection, schedule: Q01DX007 (ip), vehicle: saline", "result": "28 % of control"}, {"measurement": "T/C", "setting": "dose: 25.0 micrograms/kg/injection, schedule: Q01DX007 (ip), vehicle: saline", "result": "70 % of control"}, {"measurement": "T/C", "setting": "dose: 50.0 micrograms/kg/injection, schedule: Q01DX007 (ip), vehicle: saline", "result": "102 % of control"}, {"measurement": "T/C", "setting": "dose: 100.0 micrograms/kg/injection, schedule: Q01DX007 (ip), vehicle: saline", "result": "84 % of control"}, {"measurement": "T/C", "setting": "dose: 200.0 micrograms/kg/injection, schedule: Q01DX007 (ip), vehicle: saline", "result": "100 % of control"}]}
{"smiles": "C[C@]12CCC(=O)C=C1CC[C@@H]1[C@@H]2[C@@H](O)C[C@@]2(C)[C@H]1CC[C@]2(O)C(=O)CF", "values": [{"measurement": "T/C", "setting": "dose: 25.0 mg/kg/injection, schedule: Q#A X014 (sc), vehicle: steriod suspending solution", "result": "55 % of control"}, {"measurement": "T/C", "setting": "dose: 125.0 mg/kg/injection, schedule: Q#A X014 (sc), vehicle: steriod suspending solution", "result": "43 % of control"}, {"measurement": "T/C", "setting": "dose: 148.0 mg/kg/injection, schedule: Q01DX007 (sc), vehicle: steriod suspending solution", "result": "36 % of control"}, {"measurement": "T/C", "setting": "dose: 222.0 mg/kg/injection, schedule: Q01DX007 (sc), vehicle: saline", "result": "26 % of control"}, {"measurement": "T/C", "setting": "dose: 222.0 mg/kg/injection, schedule: Q01DX007 (sc), vehicle: steriod suspending solution", "result": "19 % of control"}, {"measurement": "T/C", "setting": "dose: 250.0 mg/kg/injection, schedule: Q#A X014 (sc), vehicle: steriod suspending solution", "result": "43 % of control"}, {"measurement": "T/C", "setting": "dose: 333.0 mg/kg/injection, schedule: Q01DX007 (sc), vehicle: saline", "result": "25 % of control"}, {"measurement": "T/C", "setting": "dose: 500.0 mg/kg/injection, schedule: Q01DX007 (sc), vehicle: saline", "result": "21 % of control"}, {"measurement": "T/C", "setting": "dose: 750.0 mg/kg/injection, schedule: Q01DX007 (sc), vehicle: saline", "result": "20 % of control"}, {"measurement": "T/C", "setting": "dose: 1125.0 mg/kg/injection, schedule: Q01DX007 (sc), vehicle: steriod suspending solution", "result": "13 % of control"}]}
{"smiles": "CN(C)NCCC#N", "values": [{"measurement": "T/C", "setting": "dose: 15.0 mg/kg/injection, schedule: Q#A X014 (ip), vehicle: methylcellulose (MC)", "result": "91 % of control"}, {"measurement": "T/C", "setting": "dose: 22.5 mg/kg/injection, schedule: Q#A X014 (ip), vehicle: methylcellulose (MC)", "result": "52 % of control"}, {"measurement": "T/C", "setting": "dose: 33.5 mg/kg/injection, schedule: Q#A X014 (ip), vehicle: methylcellulose (MC)", "result": "49 % of control"}, {"measurement": "T/C", "setting": "dose: 50.0 mg/kg/injection, schedule: Q#A X014 (ip), vehicle: methylcellulose (MC)", "result": "39 % of control"}]}
{"smiles": "O=C(NNC(=O)c1cccc2ccccc12)c1cc(Br)ccc1Br", "values": [{"measurement": "T/C", "setting": "dose: 222.0 mg/kg/injection, schedule: Q01DX007 (ip), vehicle: carboxymethylcellulose (CMC)", "result": "53 % of control"}, {"measurement": "T/C", "setting": "dose: 333.0 mg/kg/injection, schedule: Q01DX007 (ip), vehicle: carboxymethylcellulose (CMC)", "result": "65 % of control"}, {"measurement": "T/C", "setting": "dose: 500.0 mg/kg/injection, schedule: Q01DX007 (ip), vehicle: carboxymethylcellulose (CMC)", "result": "26 % of control"}, {"measurement": "T/C", "setting": "dose: 750.0 mg/kg/injection, schedule: Q01DX007 (ip), vehicle: carboxymethylcellulose (CMC)", "result": "37 % of control"}]}
{"smiles": "COc1ccc(-c2ccc(OC)c(OC)c2OC)c(N)c1", "values": [{"measurement": "T/C", "setting": "dose: 65.0 mg/kg/injection, schedule: Q01DX007 (ip), vehicle: methylcellulose (MC)", "result": "98 % of control"}, {"measurement": "T/C", "setting": "dose: 125.0 mg/kg/injection, schedule: Q01DX007 (ip), vehicle: methylcellulose (MC)", "result": "97 % of control"}, {"measurement": "T/C", "setting": "dose: 250.0 mg/kg/injection, schedule: Q01DX007 (ip), vehicle: methylcellulose (MC)", "result": "87 % of control"}, {"measurement": "T/C", "setting": "dose: 500.0 mg/kg/injection, schedule: Q01DX007 (ip), vehicle: methylcellulose (MC)", "result": "63 % of control"}, {"measurement": "T/C", "setting": "dose: 625.0 mg/kg/injection, schedule: Q01DX007 (ip), vehicle: methylcellulose (MC)", "result": "58 % of control"}, {"measurement": "T/C", "setting": "dose: 750.0 mg/kg/injection, schedule: Q01DX007 (ip), vehicle: methylcellulose (MC)", "result": "86 % of control"}]}
{"smiles": "C[C@]12CCC(=O)C=C1CC[C@H]1[C@@H]3CC[C@](O)(C(=O)CF)[C@@]3(C)C[C@H](O)[C@@]12F", "values": [{"measurement": "T/C", "setting": "dose: 20.5 mg/kg/injection, schedule: Q#A X014 (sc), vehicle: steriod suspending solution", "result": "54 % of control"}, {"measurement": "T/C", "setting": "dose: 31.0 mg/kg/injection, schedule: Q#A X014 (sc), vehicle: steriod suspending solution", "result": "62 % of control"}, {"measurement": "T/C", "setting": "dose: 46.5 mg/kg/injection, schedule: Q#A X014 (sc), vehicle: steriod suspending solution", "result": "48 % of control"}]}
{"smiles": "C=CCOc1ccc2c(c1)CC[C@@H]1[C@@H]2CC[C@]2(C)[C@@H](O)[C@@H](O)C[C@@H]12", "values": [{"measurement": "T/C", "setting": "dose: 0.25 mg/kg/injection, schedule: Q#A X014 (sc), vehicle: steriod suspending solution", "result": "90 % of control"}, {"measurement": "T/C", "setting": "dose: 0.5 mg/kg/injection, schedule: Q01DX007 (sc), vehicle: steriod suspending solution", "result": "106 % of control"}, {"measurement": "T/C", "setting": "dose: 1.25 mg/kg/injection, schedule: Q01DX007 (sc), vehicle: steriod suspending solution", "result": "77 % of control"}, {"measurement": "T/C", "setting": "dose: 1.25 mg/kg/injection, schedule: Q#A X014 (sc), vehicle: steriod suspending solution", "result": "68 % of control"}, {"measurement": "T/C", "setting": "dose: 2.5 mg/kg/injection, schedule: Q01DX007 (sc), vehicle: steriod suspending solution", "result": "91 % of control"}, {"measurement": "T/C", "setting": "dose: 2.5 mg/kg/injection, schedule: Q#A X014 (ip), vehicle: methylcellulose (MC)", "result": "84 % of control"}, {"measurement": "T/C", "setting": "dose: 2.5 mg/kg/injection, schedule: Q#A X014 (sc), vehicle: steriod suspending solution", "result": "36 % of control"}, {"measurement": "T/C", "setting": "dose: 10.0 mg/kg/injection, schedule: Q#A X014 (sc), vehicle: steriod suspending solution", "result": "60 % of control"}]}
{"smiles": "COc1ccc2c(=O)oc3c(OC)cc(CCN(C)C)c4c(=O)oc1c2c34", "values": [{"measurement": "T/C", "setting": "dose: 0.8 mg/kg/injection, schedule: Q01DX007 (ip), vehicle: water", "result": "113 % of control"}, {"measurement": "T/C", "setting": "dose: 1.6 mg/kg/injection, schedule: Q01DX007 (ip), vehicle: water", "result": "77 % of control"}, {"measurement": "T/C", "setting": "dose: 3.2 mg/kg/injection, schedule: Q01DX007 (ip), vehicle: water", "result": "108 % of control"}, {"measurement": "T/C", "setting": "dose: 6.3 mg/kg/injection, schedule: Q01DX007 (ip), vehicle: water", "result": "86 % of control"}]}
{"smiles": "CC(=O)OCC(=O)C1(O)C(C)CC2C3C=C(C)C4=Cc5c(cnn5-c5ccccc5)CC4(C)C3C(O)CC21C", "note": "(configuration not stated)", "values": [{"measurement": "T/C", "setting": "dose: 0.16 mg/kg/injection, schedule: Q01DX007 (sc), vehicle: steriod suspending solution", "result": "115 % of control"}, {"measurement": "T/C", "setting": "dose: 0.25 mg/kg/injection, schedule: Q01DX007 (sc), vehicle: steriod suspending solution", "result": "39 % of control and 42 % of control"}, {"measurement": "T/C", "setting": "dose: 8.0 mg/kg/injection, schedule: Q01DX007 (sc), vehicle: steriod suspending solution", "result": "15 % of control"}]}
